The test system of the assay is MV-4-11 cells. Put plainly: Gene expression microarray analysis (Affymetrix PrimeView) and GSEA. The class given is cell-based, human. Set-up: RFU PODN (11730768_x_at) / Fold change /veh PODN (11730768_x_at) / RFU LINC00158 (11744669_a_at) / Fold change /veh LINC00158 (11744669_a_at) / RFU DUSP10 (11751237_a_at) / Fold change /veh DUSP10 (11751237_a_at) / RFU ID3 (11757404_x_at) / Fold change /veh ID3 (11757404_x_at) / RFU PLEKHG5 (11737974_s_at) / Fold change /veh PLEKHG5 (11737974_s_at) / RFU LRRC4B (11730491_at) / Fold change /veh LRRC4B (11730491_at) / RFU GIMAP4 (11747438_a_at) / Fold change /veh GIMAP4 (11747438_a_at) / RFU KRT8 (11758183_x_at) / Fold change /veh KRT8 (11758183_x_at) / RFU CNN1 (11734310_a_at) / Fold change /veh CNN1 (11734310_a_at) / RFU VPS37D (11726825_at) / Fold change /veh VPS37D (11726825_at) / RFU C10orf10 (11716522_x_at) / Fold change /veh C10orf10 (11716522_x_at) / RFU KIR2DL2 /// KIR2DL4 /// KIR2DL5A /// KIR2DL5B /// KIR2DS1 /// KIR2DS2 /// KIR2DS3 /// KIR2DS4 /// KIR3DL3 /// KIR3DL3 /// KIR3DS1 (11738374_at) / Fold change /veh KIR2DL2 /// KIR2DL4 /// KIR2DL5A /// KIR2DL5B /// KIR2DS1 /// KIR2DS2 /// KIR2DS3 /// KIR2DS4 /// KIR3DL3 /// KIR3DL3 /// KIR3DS1 (11738374_at) / RFU C1QL1 (11718748_at) / Fold change /veh C1QL1 (11718748_at) / RFU TMPRSS4 (11747572_a_at) / Fold change /veh TMPRSS4 (11747572_a_at) / RFU HAMP (11756126_x_at) / Fold change /veh HAMP (11756126_x_at) / RFU RNFT2 (11725882_a_at) / Fold change /veh RNFT2 (11725882_a_at) / RFU NR4A2 (11747474_a_at) / Fold change /veh NR4A2 (11747474_a_at) / RFU ABCC12 (11746883_a_at) / Fold change /veh ABCC12 (11746883_a_at) / RFU TMEM136 (11760407_x_at) / Fold change /veh TMEM136 (11760407_x_at) / RFU CLDN22 /// WWC2 (11732394_at) / Fold change /veh CLDN22 /// WWC2 (11732394_at) / RFU HLA-DPB1 (11760878_x_at) / Fold change /veh HLA-DPB1 (11760878_x_at) / RFU SPINT1 (11716480_a_at) / Fold change /veh SPINT1 (11716480_a_at) / RFU GAP43 (11754022_s_at) / Fold change /veh GAP43 (11754022_s_at) / RFU A4GNT (11735810_at) / Fold change /veh A4GNT (11735810_at) / RFU PRB3 (11715151_x_at) / Fold change /veh PRB3 (11715151_x_at) / RFU TUBB4B (11761932_at) / Fold change /veh TUBB4B (11761932_at) / RFU CAPN14 (11732068_a_at) / Fold change /veh CAPN14 (11732068_a_at) / RFU TMCC2 (11721928_a_at) / Fold change /veh TMCC2 (11721928_a_at) / RFU IRGQ (11745062_a_at) / Fold change /veh IRGQ (11745062_a_at) / RFU FAM174B (11720279_a_at) / Fold change /veh FAM174B (11720279_a_at) / RFU TMPRSS4 (11748680_a_at) / Fold change /veh TMPRSS4 (11748680_a_at) / RFU FAM212B (11763350_a_at) / Fold change /veh FAM212B (11763350_a_at) / RFU PLEKHG5 (11743358_a_at) / Fold change /veh PLEKHG5 (11743358_a_at) / RFU ZSCAN30 (11745921_a_at) / Fold change /veh ZSCAN30 (11745921_a_at) / RFU CMKLR1 (11741424_a_at) / Fold change /veh CMKLR1 (11741424_a_at) / RFU LOC101060620 /// MAPK8IP1 (11723275_at) / Fold change /veh LOC101060620 /// MAPK8IP1 (11723275_at) / RFU SPTSSB (11747773_x_at) / Fold change /veh SPTSSB (11747773_x_at) / RFU PRSS12 (11739890_at) / Fold change /veh PRSS12 (11739890_at) / RFU BIN1 (11741810_x_at) / Fold change /veh BIN1 (11741810_x_at) / RFU WNT11 (11732464_a_at) / Fold change /veh WNT11 (11732464_a_at) / RFU C10orf10 (11716521_a_at) / Fold change /veh C10orf10 (11716521_a_at) / RFU C5orf56 (11738089_at) / Fold change /veh C5orf56 (11738089_at) / RFU CYB561 (11721691_x_at) / Fold change /veh CYB561 (11721691_x_at) / RFU ANKRD19P (11752326_a_at) / Fold change /veh ANKRD19P (11752326_a_at) / RFU OR2T12 /// OR2T33 /// OR2T8 (11738714_s_at) / Fold change /veh OR2T12 /// OR2T33 /// OR2T8 (11738714_s_at) / RFU VCAN (11748164_a_at) / Fold change /veh VCAN (11748164_a_at) / RFU JSRP1 (11732532_at) / Fold change /veh JSRP1 (11732532_at) / RFU KRTAP10-11 (11738290_x_at) / Fold change /veh KRTAP10-11 (11738290_x_at) / RFU MYO3A (11730013_a_at) / Fold change /veh MYO3A (11730013_a_at) / RFU EBF3 (11725865_a_at) / Fold change /veh EBF3 (11725865_a_at) / RFU CAMK2N1 (11719241_x_at) / Fold change /veh CAMK2N1 (11719241_x_at) / RFU C5orf56 (11738088_a_at) / Fold change /veh C5orf56 (11738088_a_at) / RFU OLFML3 (11715873_a_at) / Fold change /veh OLFML3 (11715873_a_at) / RFU LOC100653217 /// NTM (11731650_a_at) / Fold change /veh LOC100653217 /// NTM (11731650_a_at) / RFU MAPK11 (11762145_a_at) / Fold change /veh MAPK11 (11762145_a_at) / RFU FIZ1 (11724087_x_at) / Fold change /veh FIZ1 (11724087_x_at) / RFU OASL (11726364_x_at) / Fold change /veh OASL (11726364_x_at) / RFU SOX15 (11748057_x_at) / Fold change /veh SOX15 (11748057_x_at) / RFU CD79A (11719716_a_at) / Fold change /veh CD79A (11719716_a_at) / RFU HIST1H1D (11736915_at) / Fold change /veh HIST1H1D (11736915_at) / RFU CASKIN2 (11723855_a_at) / Fold change /veh CASKIN2 (11723855_a_at) / RFU LOC730098 (11760151_x_at) / Fold change /veh LOC730098 (11760151_x_at) / RFU OR4N2 (11742367_at) / Fold change /veh OR4N2 (11742367_at) / RFU PRRT2 (11749266_a_at) / Fold change /veh PRRT2 (11749266_a_at) / RFU SNX32 (11753110_a_at) / Fold change /veh SNX32 (11753110_a_at) / RFU CDHR5 (11726645_a_at) / Fold change /veh CDHR5 (11726645_a_at) / RFU RCAN1 (11760418_a_at) / Fold change /veh RCAN1 (11760418_a_at) / RFU FAM167A (11723789_a_at) / Fold change /veh FAM167A (11723789_a_at) / RFU FAM26E (11764081_at) / Fold change /veh FAM26E (11764081_at) / RFU ISYNA1 (11749810_s_at) / Fold change /veh ISYNA1 (11749810_s_at) / RFU ACY1 (11761880_at) / Fold change /veh ACY1 (11761880_at) / RFU 11764098_at / Fold change /veh 11764098_at / RFU SAMD14 (11745864_x_at) / Fold change /veh SAMD14 (11745864_x_at) / RFU NPB (11741838_a_at) / Fold change /veh NPB (11741838_a_at) / RFU TMPRSS6 (11731388_a_at) / Fold change /veh TMPRSS6 (11731388_a_at) / RFU KRTAP10-2 (11738614_at) / Fold change /veh KRTAP10-2 (11738614_at) / RFU ARHGAP8 /// PRR5-ARHGAP8 (11727945_x_at) / Fold change /veh ARHGAP8 /// PRR5-ARHGAP8 (11727945_x_at) / RFU KRTAP5-7 /// NADSYN1 (11734609_at) / Fold change /veh KRTAP5-7 /// NADSYN1 (11734609_at) / RFU RASL12 (11751679_a_at) / Fold change /veh RASL12 (11751679_a_at) / RFU CDKN2B (11736163_a_at) / Fold change /veh CDKN2B (11736163_a_at) / RFU PRF1 (11729649_at) / Fold change /veh PRF1 (11729649_at) / RFU, ZNF638 /// ZNF638-IT1 / Fold change vs veh, ZNF638 /// ZNF638-IT1 / RFU, PANK3 / Fold change vs veh, PANK3 / RFU, SH3YL1 / Fold change vs veh, SH3YL1 / RFU, ZEB2 / Fold change vs veh, ZEB2 / RFU, NRIP1 / Fold change vs veh, NRIP1 / RFU, PTTG1IP / Fold change vs veh, PTTG1IP / RFU, CAPN2 / Fold change vs veh, CAPN2 / RFU, MED14 / Fold change vs veh, MED14 / RFU, SNORA58 / Fold change vs veh, SNORA58 / RFU, C1orf63 / Fold change vs veh, C1orf63 / RFU, LRRFIP1 / Fold change vs veh, LRRFIP1 / RFU, NDUFAF7 / Fold change vs veh, NDUFAF7 / RFU, SLC12A2 / Fold change vs veh, SLC12A2 / RFU, IBTK / Fold change vs veh, IBTK / RFU, ESF1 / Fold change vs veh, ESF1 / Fold change vs veh, TMEM50B / RFU, TAOK1 / Fold change vs veh, TAOK1 / RFU, ACBD3 / Fold change vs veh, ACBD3 / RFU, TMA16 / Fold change vs veh, TMA16 / RFU, RWDD3 / Fold change vs veh, RWDD3 / RFU, BCAT1 / Fold change vs veh, BCAT1 / RFU, EDEM3 / Fold change vs veh, EDEM3 / RFU, TMEM33 / Fold change vs veh, TMEM33 / RFU, WDR75 / Fold change vs veh, WDR75 / RFU, AHCTF1 / Fold change vs veh, AHCTF1 / RFU, TFRC / Fold change vs veh, TFRC / RFU, ZDHHC17 / Fold change vs veh, ZDHHC17 / RFU, NOM1 / Fold change vs veh, NOM1 / RFU, ARL8B / Fold change vs veh, ARL8B / RFU, ZBTB11 / Fold change vs veh, ZBTB11 / RFU, TAMM41 / Fold change vs veh, TAMM41 / RFU, KIAA1704 /// LOC100996395 / Fold change vs veh, KIAA1704 /// LOC100996395 / RFU, ING1 / Fold change vs veh, ING1 / RFU, TRMT61B / Fold change vs veh, TRMT61B / RFU, FUBP3 / Fold change vs veh, FUBP3 / RFU, TP53 / Fold change vs veh, TP53 / RFU, TNKS2 / Fold change vs veh, TNKS2 / RFU, ZFP14 / Fold change vs veh, ZFP14 / RFU, ACTR2 / Fold change vs veh, ACTR2 / RFU, PPP3R1 / Fold change vs veh, PPP3R1 / RFU, PIK3R1 / Fold change vs veh, PIK3R1 / RFU, HNRNPA1 / Fold change vs veh, HNRNPA1 / RFU, RNF170 / Fold change vs veh, RNF170 / RFU, ZNF28 / Fold change vs veh, ZNF28 / RFU, RNGTT / Fold change vs veh, RNGTT / RFU, OGT / Fold change vs veh, OGT / RFU, BRD1 / Fold change vs veh, BRD1 / RFU, MARS / Fold change vs veh, MARS / RFU, ZNF655 / Fold change vs veh, ZNF655 / RFU, FAHD1 / Fold change vs veh, FAHD1 / RFU, BDP1 / Fold change vs veh, BDP1 / RFU, LRRCC1 / Fold change vs veh, LRRCC1 / RFU, ARID1A / Fold change vs veh, ARID1A / RFU, ZNF146 / Fold change vs veh, ZNF146 / RFU, ZNF330 / Fold change vs veh, ZNF330 / RFU, GPN3 / Fold change vs veh, GPN3 / RFU, C9orf123 / Fold change vs veh, C9orf123 / RFU, N4BP2L2 / Fold change vs veh, N4BP2L2 / RFU, ARFIP1 / Fold change vs veh, ARFIP1 / RFU, FAM179B / Fold change vs veh, FAM179B / RFU, BCL10 / Fold change vs veh, BCL10 / RFU, UHRF1BP1L / Fold change vs veh, UHRF1BP1L / RFU, BET1 / Fold change vs veh, BET1 / RFU, CNOT2 / Fold change vs veh, CNOT2 / RFU, ZNF268 / Fold change vs veh, ZNF268 / Fold change vs veh, ZNF507 / RFU, DGCR2 / Fold change vs veh, DGCR2 / RFU, WDSUB1 / Fold change vs veh, WDSUB1 / Fold change vs veh, HSP90B1 /// MIR3652 / RFU, ADSS / Fold change vs veh, ADSS / RFU, GK / Fold change vs veh, GK / RFU, ZNF148 / Fold change vs veh, ZNF148 / RFU, TAF9 / Fold change vs veh, TAF9 / RFU, SLC1A5 / Fold change vs veh, SLC1A5 / RFU, SLMO2 / Fold change vs veh, SLMO2 / RFU, ABCC4 / Fold change vs veh, ABCC4 / RFU, LOC101060439 /// RAP1B / Fold change vs veh, LOC101060439 /// RAP1B / RFU, RFX7 / Fold change vs veh, RFX7 / RFU, GTPBP10 / Fold change vs veh, GTPBP10 / RFU, CNEP1R1 / Fold change vs veh, CNEP1R1 / RFU, BIVM-ERCC5 /// ERCC5 / Fold change vs veh, BIVM-ERCC5 /// ERCC5 / RFU, ILF3 / Fold change vs veh, ILF3 / RFU 11762660_at / Fold change /veh 11762660_at / RFU VCAN (11757783_s_at) / Fold change /veh VCAN (11757783_s_at) / RFU DDX43 (11728927_at) / Fold change /veh DDX43 (11728927_at) / RFU KRT8 (11758188_x_at) / Fold change /veh KRT8 (11758188_x_at) / RFU NKD1 (11759106_at) / Fold change /veh NKD1 (11759106_at) / RFU SRD5A1 (11742802_a_at) / Fold change /veh SRD5A1 (11742802_a_at) / RFU TPSAB1 /// TPSB2 (11721975_s_at) / Fold change /veh TPSAB1 /// TPSB2 (11721975_s_at) / RFU GSTM3 (11746129_a_at) / Fold change /veh GSTM3 (11746129_a_at) / RFU IL23R (11737362_x_at) / Fold change /veh IL23R (11737362_x_at) / RFU TMEM51 (11727254_a_at) / Fold change /veh TMEM51 (11727254_a_at) / RFU PIWIL2 (11732686_x_at) / Fold change /veh PIWIL2 (11732686_x_at) / RFU ORM1 (11744905_x_at) / Fold change /veh ORM1 (11744905_x_at) / RFU CCDC152 (11743942_at) / Fold change /veh CCDC152 (11743942_at) / RFU ECM1 (11717891_a_at) / Fold change /veh ECM1 (11717891_a_at) / RFU IL23R (11748794_a_at) / Fold change /veh IL23R (11748794_a_at) / RFU TNFAIP8L3 (11732012_x_at) / Fold change /veh TNFAIP8L3 (11732012_x_at) / RFU MBOAT4 (11741988_at) / Fold change /veh MBOAT4 (11741988_at) / RFU 11764193_at / Fold change /veh 11764193_at / RFU TMEM53 (11763286_at) / Fold change /veh TMEM53 (11763286_at) / RFU MAGEB2 (11727129_at) / Fold change /veh MAGEB2 (11727129_at) / RFU TMEM200A (11744735_a_at) / Fold change /veh TMEM200A (11744735_a_at) / RFU CCDC152 (11751479_a_at) / Fold change /veh CCDC152 (11751479_a_at) / RFU FAM211A (11726209_a_at) / Fold change /veh FAM211A (11726209_a_at) / RFU RGS16 (11746705_a_at) / Fold change /veh RGS16 (11746705_a_at) / RFU VCAN (11755009_s_at) / Fold change /veh VCAN (11755009_s_at) / RFU RHOB (11743442_s_at) / Fold change /veh RHOB (11743442_s_at) / RFU RGS16 (11720943_a_at) / Fold change /veh RGS16 (11720943_a_at) / RFU RGS16 (11720944_at) / Fold change /veh RGS16 (11720944_at) / RFU, VPS4B / Fold change vs veh, VPS4B / RFU, CREB1 / Fold change vs veh, CREB1 / RFU, DNAJC13 / Fold change vs veh, DNAJC13 / RFU, GNAQ / Fold change vs veh, GNAQ / RFU, CDK5R1 / Fold change vs veh, CDK5R1 / RFU, ZRANB3 / Fold change vs veh, ZRANB3 / RFU, CUL4A / Fold change vs veh, CUL4A / RFU, CCNY / Fold change vs veh, CCNY / RFU, UFL1 / Fold change vs veh, UFL1 / RFU, COG3 / Fold change vs veh, COG3 / RFU, DIAPH2 / Fold change vs veh, DIAPH2 / RFU, SKA2 / Fold change vs veh, SKA2 / RFU, AFF3 / Fold change vs veh, AFF3 / RFU, LMF1 / Fold change vs veh, LMF1 / RFU, IPO11 / Fold change vs veh, IPO11 / RFU, DFFB / Fold change vs veh, DFFB / RFU, FOXP1 / Fold change vs veh, FOXP1 / RFU, CARD8 / Fold change vs veh, CARD8 / RFU, STRN3 / Fold change vs veh, STRN3 / RFU, ADK / Fold change vs veh, ADK / RFU, RASSF2 / Fold change vs veh, RASSF2 / RFU, WIPF1 / Fold change vs veh, WIPF1 / RFU, LARP1B / Fold change vs veh, LARP1B / RFU, RASA1 / Fold change vs veh, RASA1 / RFU, RB1 / Fold change vs veh, RB1 / RFU, PPFIA1 / Fold change vs veh, PPFIA1 / RFU, MAT2A / Fold change vs veh, MAT2A / RFU, CCT5 / Fold change vs veh, CCT5 / RFU, WDR92 / Fold change vs veh, WDR92 / RFU, CUX1 / Fold change vs veh, CUX1 / RFU, TTC7A / Fold change vs veh, TTC7A / RFU, TMEM135 / Fold change vs veh, TMEM135 / RFU, DEPTOR / Fold change vs veh, DEPTOR / RFU, CPM / Fold change vs veh, CPM / RFU, DNAJB6 / Fold change vs veh, DNAJB6 / RFU, CACNA2D3 / Fold change vs veh, CACNA2D3 / RFU, DTX4 / Fold change vs veh, DTX4 / RFU, TFCP2 / Fold change vs veh, TFCP2 / RFU, GMCL1 /// GMCL1P1 / Fold change vs veh, GMCL1 /// GMCL1P1 / RFU, AEBP2 / Fold change vs veh, AEBP2 / RFU, SNHG1 /// SNORD22 /// SNORD25 /// SNORD26 /// SNORD27 /// SNORD28 /// SNORD29 /// SNORD31 / Fold change vs veh, SNHG1 /// SNORD22 /// SNORD25 /// SNORD26 /// SNORD27 /// SNORD28 /// SNORD29 /// SNORD31 / Fold change (Aza/veh), C12orf56 (ProbeSet 11735607_a_at) / Fold change (ACY-1035/veh), C12orf56 (ProbeSet 11735607_a_at) / Fold change (Aza/veh), FGFR1OP (ProbeSet 11751329_s_at) / Fold change (ACY-1035/veh), FGFR1OP (ProbeSet 11751329_s_at) / Fold change (Aza/veh), VPS36 (ProbeSet 11739960_a_at) / Fold change (ACY-1035/veh), VPS36 (ProbeSet 11739960_a_at) / RFU SYPL1 (11715823_x_at) / Fold change /veh SYPL1 (11715823_x_at) / RFU IGFBP7 (11715501_s_at) / Fold change /veh IGFBP7 (11715501_s_at) / RFU REEP3 (11722064_at) / Fold change /veh REEP3 (11722064_at) / RFU IGLL1 (11728026_x_at) / Fold change /veh IGLL1 (11728026_x_at): dose or concentration left out as unconfirmed. The following applies: ProbeSet 11743580_s_at; LIST B.

As for `Nc1ncn([C@@H]2O[C@H](CO)[C@@H](O)[C@H]2O)c(=O)n1` [azacitidine], the “RFU, ACTR2” value was 932.68 RFU.

These data come from publication PMC5218480 (PLoS ONE, 2017).
